Values after ≈ are worked out from the molar mass of the structure shown. Blank lines part the entries; values can stand above or below the compound they belong to.
Columns and labels:
Assay in all cases: ≥ marks a high value that may be exact or a test limit, other limits are often not marked, values filed in µg/mL are converted to µM
Escherichia coli J2210 = tested on: Escherichia coli J2210
Escherichia coli JJ2487 = tested on: Escherichia coli JJ2487
Escherichia coli JW0013 = tested on: Escherichia coli JW0013
Escherichia coli MC1061 = tested on: Escherichia coli MC1061
Escherichia coli O157:H7 = tested on: Escherichia coli O157:H7
[1] = tested on: Salmonella enterica subsp. enterica serovar Enteritidis MH91989
[2] = tested on: Salmonella typhimurium SL1344
[3] = tested on: Candida albicans CGMCC 2.2086
[4] = tested on: Candida parapsilosis CGMCC 2.3989
[5] = tested on: Candida tropicalis CGMCC 2.1975
Escherichia coli 078 = tested on: Escherichia coli 078
[6] = tested on: Escherichia coli ATCC 25922
Escherichia coli K88 = tested on: Escherichia coli K88
Escherichia coli K99 = tested on: Escherichia coli K99
Escherichia coli UB1005 = tested on: Escherichia coli UB1005
[7] = tested on: Pseudomonas aeruginosa ATCC 27853
[8] = tested on: Salmonella enterica subsp. enterica serovar Typhimurium ATCC 14028
[9] = tested on: Salmonella enterica subsp. enterica serovar Typhimurium C77-31
[10] = tested on: Staphylococcus aureus ATCC 25923
[11] = tested on: Staphylococcus aureus ATCC 29213
[12] = tested on: Staphylococcus aureus ATCC 43300
[13] = tested on: Staphylococcus epidermidis ATCC 12228
[14] = tested on: Candida albicans ATCC 10231
[15] = tested on: Cryptococcus neoformans ATCC 32045
[16] = tested on: Escherichia coli ATCC 2592
[17] = tested on: Pseudomonas aeruginosa ATCC 10145
[18] = tested on: Staphylococcus aureus ATCC 33591
[19] = tested on: Bifidobacterium adolescentis
Citrobacter koseri = tested on: Citrobacter koseri
Enterococcus faecium = tested on: Enterococcus faecium
Escherichia coli BL21 = tested on: Escherichia coli BL21
Escherichia coli JM109 = tested on: Escherichia coli JM109
[20] = tested on: Klebsiella pneumoniae CCRC 10694
[21] = tested on: Lactobacillus delbrueckii subsp. bulgaricus
Pseudomonas aeruginosa = tested on: Pseudomonas aeruginosa
Salmonella enterica = tested on: Salmonella enterica
[22] = tested on: Salmonella typhimurium CCRC 12947
[23] = tested on: Staphylococcus aureus CCRC 12652
[24] = tested on: Staphylococcus aureus CCRC 15211
Staphylococcus xylosus = tested on: Staphylococcus xylosus
[25] = tested on: Vibrio parahaemolyticus CCRC 10806

Structure (SMILES): CC[C@H](C)[C@H](NC(=O)[C@H](CCCCN)NC(=O)[C@H](C)NC(=O)[C@H](C)N)C(=O)N[C@H](C(=O)N[C@@H](CC(C)C)C(=O)N[C@@H](CC(N)=O)C(=O)N1CCC[C@H]1C(=O)N[C@@H](CCCCN)C(=O)N[C@@H](Cc1ccccc1)C(=O)N[C@@H](CCCN=C(N)N)C(N)=O)[C@@H](C)CC [AAKIILNPKFR]
MIC [3]: ≥ 128 µM
MIC [4]: ≥ 128 µM
MIC [5]: ≥ 128 µM
MIC (Escherichia coli 078): ≥ 128 µM
MIC [6]: > 128 µM
MIC (Escherichia coli K88): ≥ 128 µM
MIC (Escherichia coli K99): ≥ 128 µM
MIC (Escherichia coli UB1005): ≥ 128 µM
MIC [7]: > 128 µM
MIC [8]: > 128 µM
MIC [9]: ≥ 128 µM
MIC [10]: > 128 µM
MIC [11]: > 128 µM
MIC [12]: > 128 µM
MIC [13]: > 128 µM

Structure (SMILES): CC(C)C[C@H](NC(=O)[C@H](CCCN=C(N)N)NC(=O)[C@H](CC(C)C)NC(=O)[C@H](CCCN=C(N)N)NC(=O)[C@H](CC(C)C)NC(=O)[C@H](CCCN=C(N)N)NC(=O)[C@H](CC(C)C)NC(=O)[C@H](CCCN=C(N)N)NC(=O)[C@H](CC(C)C)NC(=O)[C@H](CCCN=C(N)N)NC(=O)[C@H](CC(C)C)NC(=O)[C@H](CCCN=C(N)N)NC(=O)[C@@H](N)CC(C)C)C(=O)N[C@@H](CCCN=C(N)N)C(=O)O [LRLRLRLRLRLRLR]
MIC [14]: 186 µM (≈ 354 µg/mL)
MIC [15]: 2.97 µM (≈ 5.66 µg/mL)
MIC [16]: 23 µM (≈ 43.8 µg/mL)
MIC [17]: ≥ 65.7 µM
MIC [18]: ≥ 186 µM

Structure (SMILES): NCCCC[C@H](NC(=O)[C@H](Cc1ccccc1)NC(=O)[C@H](CCCCN)NC(=O)[C@H](CCCCN)NC(=O)[C@H](Cc1ccccc1)NC(=O)[C@H](CCCCN)NC(=O)[C@H](CCCCN)NC(=O)[C@H](Cc1ccccc1)NC(=O)[C@H](CCCCN)NC(=O)[C@H](CCCCN)NC(=O)[C@H](Cc1ccccc1)NC(=O)[C@H](CCCCN)NC(=O)[C@H](CCCCN)NC(=O)[C@H](Cc1ccccc1)NC(=O)[C@H](CCCCN)NC(=O)[C@H](CCCCN)NC(=O)[C@H](Cc1ccccc1)NC(=O)[C@H](CCCCN)NC(=O)[C@H](CCCCN)NC(=O)[C@H](Cc1ccccc1)NC(=O)[C@@H](N)CCCCN)C(=O)O [KFKKFKKFKKFKKFKKFKKFK]
MIC [14]: 124 µM (≈ 354 µg/mL)
MIC [15]: 17.5 µM (≈ 49.8 µg/mL)
MIC [16]: 15.4 µM (≈ 43.8 µg/mL)
MIC [17]: ≥ 44 µM
MIC [18]: ≥ 176 µM

Further lines, with some results ahead:

MIC (Escherichia coli J2210): 0.245 µM (≈ 0.6 µg/mL)
MIC (Escherichia coli JJ2487): 0.159 µM (≈ 0.39 µg/mL)
MIC (Escherichia coli JW0013): 0.339 µM (≈ 0.83 µg/mL)
MIC (Escherichia coli MC1061): 0.122 µM (≈ 0.3 µg/mL)
MIC (Escherichia coli O157:H7): 0.98 µM (≈ 2.4 µg/mL)
MIC [1]: 0.245 µM (≈ 0.6 µg/mL)
MIC [2]: 0.245 µM (≈ 0.6 µg/mL)
Structure (SMILES): CC[C@H](C)[C@H](NC(=O)[C@H](CCCN=C(N)N)NC(=O)[C@H](CCCN=C(N)N)NC(=O)[C@@H]1CCCN1C(=O)[C@@H]1CCCN1C(=O)[C@H](CCCN=C(N)N)NC(=O)[C@@H]1CCCN1C(=O)[C@H](CCCN=C(N)N)NC(=O)[C@@H]1CCCN1C(=O)[C@H](CC(C)C)NC(=O)[C@H](Cc1ccc(O)cc1)NC(=O)[C@@H]1CCCN1C(=O)[C@H](CCCN=C(N)N)NC(=O)[C@H](CCCCN)NC(=O)[C@H](CC(=O)O)NC(=O)[C@@H](N)C(C)C)C(=O)N[C@@H](Cc1ccc(O)cc1)C(=O)N[C@@H](CC(N)=O)C(=O)N[C@@H](CCCN=C(N)N)C(N)=O [VDKRPYLPRPRPPRRIYNR]

MIC [19]: ≥ 78 µM
MIC (Citrobacter koseri): 2.44 µM (≈ 4 µg/mL)
MIC (Enterococcus faecium): ≥ 78 µM
MIC (Escherichia coli BL21): 4.88 µM (≈ 8 µg/mL)
MIC (Escherichia coli JM109): 1.22 µM (≈ 2 µg/mL)
MIC [20]: ≥ 39 µM
MIC [21]: ≥ 78 µM
MIC (Pseudomonas aeruginosa): 39 µM (≈ 64 µg/mL)
MIC (Salmonella enterica): 19.5 µM (≈ 32 µg/mL)
MIC [22]: 19.5 µM (≈ 32 µg/mL)
MIC [23]: 13.8 µM (≈ 22.6 µg/mL)
MIC [24]: 19.5 µM (≈ 32 µg/mL)
MIC (Staphylococcus xylosus): 0.61 µM (≈ 0.999 µg/mL)
Structure (SMILES): CC[C@H](C)[C@H](NC(=O)[C@H](CC(N)=O)NC(=O)[C@H](CCCCN)NC(=O)[C@H](CC(C)C)NC(=O)[C@H](CCCCN)NC(=O)[C@@H](N)CC(C)C)C(=O)N[C@H](C(=O)N[C@@H](CO)C(=O)N[C@@H](Cc1c[nH]c2ccccc12)C(=O)N[C@@H](C)C(=O)N[C@@H](CCCCN)C(=O)N[C@@H](CCCCN)C(=O)N[C@H](C(=O)N[C@@H](CC(C)C)C(N)=O)C(C)C)C(C)C [LKLKNIVSWAKKVL]
MIC [25]: 9.76 µM (≈ 16 µg/mL)

MIC (Escherichia coli J2210): 0.12 µM (≈ 0.3 µg/mL)
MIC (Escherichia coli JJ2487): 0.169 µM (≈ 0.42 µg/mL)
MIC (Escherichia coli JW0013): 0.156 µM (≈ 0.39 µg/mL)
MIC (Escherichia coli MC1061): 0.0602 µM (≈ 0.15 µg/mL)
MIC (Escherichia coli O157:H7): 0.666 µM (≈ 1.66 µg/mL)
MIC [1]: 0.169 µM (≈ 0.42 µg/mL)
MIC [2]: 0.156 µM (≈ 0.39 µg/mL)
Structure (SMILES): CC[C@H](C)[C@H](NC(=O)[C@H](CCCN=C(N)N)NC(=O)[C@H](CCCN=C(N)N)NC(=O)[C@@H]1CCCN1C(=O)[C@@H]1CCCN1C(=O)[C@H](CCCN=C(N)N)NC(=O)[C@@H]1CCCN1C(=O)[C@H](CCCN=C(N)N)NC(=O)[C@@H]1CCCN1C(=O)[C@H](CCCN=C(N)N)NC(=O)[C@H](Cc1ccc(O)cc1)NC(=O)[C@@H]1CCCN1C(=O)[C@H](CCCN=C(N)N)NC(=O)[C@H](CCCCN)NC(=O)[C@H](CC(=O)O)NC(=O)[C@@H](N)C(C)C)C(=O)N[C@@H](Cc1ccc(O)cc1)C(=O)N[C@@H](CC(N)=O)C(=O)N[C@@H](CCCN=C(N)N)C(N)=O [VDKRPYRPRPRPPRRIYNR]

MIC [19]: ≥ 80.5 µM
MIC (Citrobacter koseri): 5.03 µM (≈ 8 µg/mL)
MIC (Enterococcus faecium): ≥ 80.5 µM
MIC (Escherichia coli BL21): 10.1 µM (≈ 16 µg/mL)
MIC (Escherichia coli JM109): 1.26 µM (≈ 2 µg/mL)
MIC [20]: ≥ 80.5 µM
MIC [21]: ≥ 80.5 µM
MIC (Pseudomonas aeruginosa): 80.5 µM (≈ 128 µg/mL)
MIC (Salmonella enterica): ≥ 80.5 µM
MIC [22]: ≥ 80.5 µM
MIC [23]: ≥ 80.5 µM
MIC [24]: ≥ 80.5 µM
MIC (Staphylococcus xylosus): 0.629 µM (≈ 0.999 µg/mL)
Structure (SMILES): CC[C@H](C)[C@H](NC(=O)[C@H](CO)NC(=O)[C@H](CCCCN)NC(=O)[C@H](CC(C)C)NC(=O)[C@H](CCCCN)NC(=O)[C@@H](N)CC(C)C)C(=O)N[C@H](C(=O)N[C@@H](CO)C(=O)N[C@@H](Cc1ccc(O)cc1)C(=O)N[C@@H](C)C(=O)N[C@@H](CCCCN)C(=O)N[C@@H](CCCCN)C(=O)N[C@H](C(=O)N[C@@H](CC(C)C)C(N)=O)C(C)C)C(C)C [LKLKSIVSYAKKVL]
MIC [25]: ≥ 40.3 µM

— DBAASP
